Measured values: patent publication US12496298B2, “Natural killer cells” (Imperial College Innovations Limited, priority 2017, dated 2025)
“Also recorded” adds a separate entry of the source.

System: HPCs isolated from wild type, E4bp4 knockout and heterozygous mice
Test: NK cell production from HPCs isolated from WT, E4bp4 Het and E4bp4 KO mice
Assay type: cell-based, mouse
Method: FIG. 7: HPCs isolated from either wild type (WT), E4bp4 knockout (KO) or heterozygous (Het) mice were cultured with the addition of 5 or 10 μM SR8278. At Day 9, percentage of NK cells was quantified using flow cytometry. Graph showing relative mature mouse NK cell (NK1.1^+ CD3^−) production compared to the ‘No drug’ control in experiments with (A) WT, (B) Het and (C) E4bp4 KO mice. (D) Representative flow cytometry results with percentage of NK cells shown for the addition of 10 μM SR8278. Results were averaged from two experiments with four repeats each and the error bars represent the mean+SD. Asterisks indicate significant differences from the two annotated results (* is P≤0.01 and ** is P≤0.001) based on Mann-Whitney test.
Following the experiment with GSK4112, it was predicted that SR8278 acts through the pathway involving REV-ERB and E4bp4. […] Cell cultures were performed as previously (FIG. 3), where SR8278 was added on Day 2 of the culture and NK cell production was measured by flow cytometry. […]
Cells to be analysed by flow cytometry were passed through 40 μm cell strainers to remove clumps and washed with PBS buffer, centrifuged at 800 g for 2 minutes and resuspended in 100 μl fluorescent activated cell sorting (FACS) buffer (PBS plus 1% BSA) with appropriate fluorochrome conjugated antibodies at a dilution of 1 in 300. […]

In the case of `CCOC(=O)C1Cc2ccccc2CN1C(=O)c1ccc(SC)s1` (centres unmarked) [SR8278, 1,2,3,4-Tetrahydro-2-[[5-(methylthio)-2-thienyl]carbonyl]-3-isoquinolinecarboxylic acid ethyl ester], the “percentage of NK cells produced” value (HPCs from E4bp4 KO mice, regardless of concentration) is reported as “absent of NK cells; also recorded: no effect” and the “percentage of NK cells produced compared to 'No drug' control” value (HPCs from WT mice, 5 μM and 10 μM added Day 2) is reported as “largest significant increase”.
